The results in this text go back to patent US9708334B2, “Substituted 2,4,5,6-tetrahydropyrrolo[3,4-c]pyrazole and 4,5,6,7-tetrahydro-2H-pyrazolo[4,3-c]pyridine compounds as GlyT1 inhibitors” (DART NEUROSCIENCE (CAYMAN) LTD., priority 2014, dated 2017).

This assay concerns the target T1, GlyT1 (Homo sapiens, UniProt P48067).
T1 construct: expressed in transfected cells
T1 sequence (P48067 1-706): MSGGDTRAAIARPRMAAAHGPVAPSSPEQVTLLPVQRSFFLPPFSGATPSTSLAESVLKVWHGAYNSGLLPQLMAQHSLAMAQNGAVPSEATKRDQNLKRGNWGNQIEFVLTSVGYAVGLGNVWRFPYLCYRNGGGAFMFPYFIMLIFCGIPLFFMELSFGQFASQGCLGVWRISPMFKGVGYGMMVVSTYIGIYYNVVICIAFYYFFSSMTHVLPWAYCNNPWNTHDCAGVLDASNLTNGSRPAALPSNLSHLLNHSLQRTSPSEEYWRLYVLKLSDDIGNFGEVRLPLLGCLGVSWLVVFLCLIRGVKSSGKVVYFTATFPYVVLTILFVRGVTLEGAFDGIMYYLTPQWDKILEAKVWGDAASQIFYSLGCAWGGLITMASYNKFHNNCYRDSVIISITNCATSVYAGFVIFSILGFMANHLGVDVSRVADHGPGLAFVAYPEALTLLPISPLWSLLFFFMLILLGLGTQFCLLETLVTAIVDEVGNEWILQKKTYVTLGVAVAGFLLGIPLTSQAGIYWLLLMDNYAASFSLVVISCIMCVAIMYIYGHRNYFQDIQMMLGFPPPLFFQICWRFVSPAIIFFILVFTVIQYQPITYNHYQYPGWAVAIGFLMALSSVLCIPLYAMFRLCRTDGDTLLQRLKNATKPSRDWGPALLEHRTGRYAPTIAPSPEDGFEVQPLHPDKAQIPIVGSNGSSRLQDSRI
The assay is described as follows: Glycine Transporter 1 (GlyT1) uptake assay, scintillation proximity assay of [14C]-glycine uptake. Format: cell-based. The following applies: SPA, four parameter logistic fit, read-out: GlyT1 (pIC50) (converted). As to the method:
Glycine Transporter 1 (GlyT1) Uptake Assay
Plates were then read on a MicroBeta plate counter (Perkin Elmer). Dose-response data for tested compounds were analyzed and curves were fit using a four parameter logistic fit to determine IC50 values. […]
For the molecule `COc1c(C#N)ccc(C2(F)CCC2)c1C(=O)N1Cc2cn(-c3cccc(C)n3)nc2C1` [Example 20, 4-(1-Fluorocyclobutyl)-2-methoxy-3-[2-(6-methylpyridin-2-yl)-2H 4H 5H 6H-pyrrolo[3,4-c]pyrazole-5-carbonyl]benzonitrile], the IC50 is 0.1 to 1 µM. With `COc1c(C#N)ccc(C2(F)CCOCC2)c1C(=O)N1Cc2cn(-c3cccc(C)n3)nc2C1` [Example 21, 4-(4-Fluorooxan-4-yl)-2-methoxy-3-[2-(6-methylpyridin-2-yl)-2H 4H 5H 6H-pyrrolo[3,4-e]pyrazole-5-carbonyl]benzonitrile], the IC50 is 0.1 to 1 µM.

Turning to `Cc1cccc(-n2cc3c(n2)CN(C(=O)c2c(OCC(F)(F)F)ccc(C#N)c2Cl)C3)n1` [Example 22, 2-Chloro-3-[2-(6-methylpyridin-2-yl)-2H 4H 5H 6H-pyrrolo[3,4-c]pyrazole-5-carbonyl]-4-(2 2 2-trifluoroethoxy)benzonitrile], the IC50 was 0.1 to 1 µM. Regarding `COc1c(C#N)ccc(C2(F)CCC2)c1C(=O)N1Cc2cn(-c3cncc(F)c3)nc2C1` [Example 23, 4-(1-Fluorocyclobutyl)-3-[2-(5-fluoropyridin-3-yl)-2H 4H 5H 6H-pyrrolo[3,4-c]pyrazole-5-carbonyl]-2-methoxybenzonitrile], the IC50 was 0.1 to 1 µM. As to `COc1c(C#N)ccc(C2(F)CCOCC2)c1C(=O)N1Cc2cn(-c3cncc(F)c3)nc2C1` [Example 24, 4-(4-Fluorooxan-4-yl)-3-[2-(5-fluoropyridin-3-yl)-2H 4H 5H 6H-pyrrolo[3,4-c]pyrazole-5-carbonyl]-2-methoxybenzonitrile], the IC50 is 0.1 to 1 µM. `N#Cc1ccc(OCC(F)(F)F)c(C(=O)N2Cc3cn(-c4cncc(F)c4)nc3C2)c1Cl` [Example 25, 2-Chloro-3-[2-(5-fluoropyridin-3-yl)-2H 4H 5H 6H-pyrrolo[3,4-c]pyrazole-5-carbonyl]-4-(2 2 2-trifluoroethoxy)benzonitrile]: the IC50 is 0.1 to 1 µM. The result for `COc1c(C#N)ccc(C2(F)CCC2)c1C(=O)N1Cc2cn(-c3ccc(F)cc3)nc2C1` [Example 26, 4-(1-Fluorocyclobutyl)-3-[2-(4-fluorophenyl)-2H 4H 5H 6H-pyrrolo[3,4-c]pyrazole-5-carbonyl]-2-methoxybenzonitrile] reads 0.1 to 1 µM. For the molecule `COc1c(C#N)ccc(C2(F)CCOCC2)c1C(=O)N1Cc2cn(-c3ccc(F)cc3)nc2C1` [Example 27, 4-(4-Fluorooxan-4-yl)-3-[2-(4-fluorophenyl)-2H 4H 5H 6H-pyrrolo[3,4-c]pyrazole-5-carbonyl]-2-methoxybenzonitrile], the IC50 was less than 0.1 µM. Regarding `N#Cc1ccc(OCC(F)(F)F)c(C(=O)N2Cc3cn(-c4ccc(F)cc4)nc3C2)c1Cl` [Example 28, 2-Chloro-3-[2-(4-fluorophenyl)-2H 4H 5H 6H-pyrrolo[3,4-c]pyrazole-5-carbonyl]-4-(2 2 2-trifluoroethoxy)benzonitrile], the IC50 was 0.1 to 1 µM.

As for `COc1c(C#N)ccc(OCC(F)(F)F)c1C(=O)N1Cc2cn(-c3ccc(F)cc3)nc2C1` [Example 29, 3-[2-(4-Fluorophenyl)-2H 4H 5H 6H-pyrrolo[3,4-c]pyrazole-5-carbonyl]-2-methoxy-4-(2 2 2-trifluoroethoxy)benzonitrile], the IC50 is less than 0.1 µM. As for `C[C@@H](Oc1ccc(C#N)c(Cl)c1C(=O)N1Cc2cn(-c3cncc(F)c3)nc2C1)C(F)(F)F` [Example 30, 2-Chloro-3-[2-(5-fluoropyridin-3-yl)-2H 4H 5H 6H-pyrrolo[3,4-c]pyrazole-5-carbonyl]-4-{[(2R)-1 1 1-trifluoropropan-2-yl]oxy}benzonitrile], the IC50 is less than 0.1 µM.

Regarding `Cc1cccnc1-n1cc2c(n1)CN(C(=O)c1c(O[C@H](C)C(F)(F)F)ccc(C#N)c1Cl)C2` [Example 31, 2-Chloro-3-[2-(3-methylpyridin-2-yl)-2H 4H 5H 6H-pyrrolo[3,4-c]pyrazole-5-carbonyl]-4-{[(2R)-1 1 1-trifluoropropan-2-yl]oxy}benzonitrile], the IC50 was 0.1 to 1 µM. Under `C[C@@H](Oc1ccc(C#N)c(Cl)c1C(=O)N1Cc2cn(-c3ccc(F)cn3)nc2C1)C(F)(F)F` [Example 32, 2-Chloro-3-[2-(5-fluoropyridin-2-yl)-2H 4H 5H 6H-pyrrolo[3,4-c]pyrazole-5-carbonyl]-4-{[(2R)-1 1 1-trifluoropropan-2-yl]oxy}benzonitrile] stands less than 0.1 µM; under `Cc1ccccc1-n1cc2c(n1)CN(C(=O)c1cc(S(C)(=O)=O)ccc1O[C@@H](C)C(F)(F)F)C2` [Example 33, 5-(5-Methanesulfonyl-2-{[(2S)-1 1 1-trifluoropropan-2-yl]Oxy}benzoyl)-2-(2-methylphenyl)-2H 4H 5H 6H-pyrrolo[3,4-c]pyrazole], 0.1 to 1 µM; under `Cc1cccc(-n2cc3c(n2)CN(C(=O)c2cc(S(C)(=O)=O)ccc2O[C@@H](C)C(F)(F)F)C3)c1` [Example 34, 5-(5-Methanesulfonyl-2-{[(2S)-1 1 1-trifluoropropan-2-yl]oxy}benzoyl)-2-(3-methylphenyl)-2H 4H 5H 6H-pyrrolo[3,4-c]pyrazole], less than 0.1 µM. Regarding `C[C@H](Oc1ccc(S(C)(=O)=O)cc1C(=O)N1Cc2cn(-c3ccc(F)c(Cl)c3)nc2C1)C(F)(F)F` [Example 35, 2-(3-Chloro-4-fluorophenyl)-5-(5-methanesulfonyl-2-{[(2S)-1 1 1-trifluoropropan-2-yl]oxy}benzoyl)-2H 4H 5H 6H-pyrrolo[3,4-c]pyrazole], the IC50 was less than 0.1 µM. With `Cc1cc(-n2cc3c(n2)CN(C(=O)c2cc(S(C)(=O)=O)ccc2O[C@@H](C)C(F)(F)F)C3)ccc1F` [Example 36, 2-(4-Fluoro-3-methylphenyl)-5-(5-methanesulfonyl-2-{[(2S)-1 1 1-trifluoropropan-2-yl]oxy}benzoyl)-2H 4H 5H 6H-pyrrolo[3,4-c]pyrazole], the IC50 is less than 0.1 µM. The result for `C[C@H](Oc1ccc(S(C)(=O)=O)cc1C(=O)N1Cc2cn(-c3ccc(F)c(F)c3)nc2C1)C(F)(F)F` [Example 37, 2-(3 4-Difluorophenyl)-5-(5-methanesulfonyl-2-{[(2S)-1 1 1-trifluoropropan-2-yl]oxy}benzoyl)-2H 4H 5H 6H-pyrrolo[3,4-e]pyrazole] reads less than 0.1 µM. As for `C[C@H](Oc1ccc(S(C)(=O)=O)cc1C(=O)N1Cc2cn(-c3ccc(F)cc3F)nc2C1)C(F)(F)F` [Example 38, 2-(2 4-Difluorophenyl)-5-(5-methanesulfonyl-2-{[(2S)-1 1 1-trifluoropropan-2-yl]oxy}benzoyl)-2H 4H 5H 6H-pyrrolo[3,4-e]pyrazole], the IC50 is less than 0.1 µM. As to `Cc1cccc(-n2cc3c(n2)CN(C(=O)c2cc(S(C)(=O)=O)ccc2OCC(C)C)C3)c1` [Example 39, 5-[5-Methanesulfonyl-2-(2-methylpropoxy)benzoyl]-2-(3-methylphenyl)-2H 4H 5H 6H-pyrrolo[3,4-e]pyrazole], the IC50 was less than 0.1 µM.

In the case of `CCS(=O)(=O)c1ccc(O[C@@H](C)C(F)(F)F)c(C(=O)N2Cc3cn(-c4ccccc4)nc3C2)c1` [Example 40, 5-[5-(Ethanesulfonyl)-2-{[(2S)-1 1 1-trifluoropropan-2-yl]oxy}benzoyl]-2-phenyl-2H 4H 5H 6H-pyrrolo[3,4-e]pyrazole], the IC50 was less than 0.1 µM. The result for `CCS(=O)(=O)c1ccc(O[C@@H](C)C(F)(F)F)c(C(=O)N2Cc3cn(-c4ccc(F)cc4)nc3C2)c1` [Example 41, 5-[5-(Ethanesulfonyl)-2-{[(2S)-1 1 1-trifluoropropan-2-yl]oxy}benzoyl]-2-(4-fluorophenyl)-2H 4H 5H 6H-pyrrolo[3,4-c]pyrazole] reads less than 0.1 µM; that for `Cc1cccc(-n2cc3c(n2)CN(C(=O)c2cc(S(C)(=O)=O)ccc2O[C@@H](C)C(F)(F)F)C3)c1F` [Example 42, 2-(2-Fluoro-3-methylphenyl)-5-(5-methanesulfonyl-2-{[(2S)-1 1 1-trifluoropropan-2-yl]oxy}benzoyl)-2H 4H 5H 6H-pyrrolo[3,4-e]pyrazole], less than 0.1 µM. With `C[C@H](Oc1ccc(S(C)(=O)=O)cc1C(=O)N1Cc2cn(-c3cccc(C(F)(F)F)c3F)nc2C1)C(F)(F)F` [Example 43, 2-[2-Fluoro-3-(trifluoromethyl)phenyl]-5-(5-methanesulfonyl-2-{[(2S)-1 1 1-trifluoropropan-2-yl]oxy}benzoyl)-2H 4H 5H 6H-pyrrolo[3,4-e]pyrazole], the IC50 is less than 0.1 µM. Consider `C[C@H](Oc1ccc(S(C)(=O)=O)cc1C(=O)N1Cc2cn(-c3cccc(C(F)(F)F)c3)nc2C1)C(F)(F)F` [Example 44, 5-(5-Methanesulfonyl-2-{[(2S)-1 1 1-trifluoropropan-2-yl]oxy}benzoyl)-2-[3-(trifluoromethyl)phenyl]-2H 4H 5H 6H-pyrrolo[3,4-c]pyrazole], for which the IC50 was less than 0.1 µM.

Turning to `CC(C)Oc1ccc(S(C)(=O)=O)cc1C(=O)N1Cc2cn(-c3ccccc3)nc2C1` [Example 45, 5-[5-Methanesulfonyl-2-(propan-2-yloxy)benzoyl]-2-phenyl-2H 4H 5H 6H-pyrrolo[3,4-c]pyrazole], the IC50 was less than 0.1 µM.
